row,melting point,SMILES
1,70 to 73 °C,O=C1OC(COc2ccccc2)CN1CCCOc1ccc(CC2SC(=O)N(C(c3ccccc3)(c3ccccc3)c3ccccc3)C2=O)cc1 (centres undefined)
2,226 to 228 °C,N#Cc1cccn(-c2ccc(S(=O)(=O)N(CCO)CCO)cc2)c1=O
3,233 to 240 °C,Cc1cc(C)n(-c2nc(Nc3cccc(C(F)(F)F)c3)c3ccccc3n2)n1
4,101 to 103 °C,CC(C)(C)CC(C)(C)c1ccc(O)c(-n2nc3ccccc3n2)c1
5,35 °C,CC(=O)[Si](C)(C(C)(C)C)C(C)(C)C
6,155 to 157 °C,C#Cc1ccc(Nc2c(C(=O)NOCCO)ccc(F)c2F)c(Cl)c1
7,197 to 198 °C,CC(C)NC(=S)Nc1cccc(NC(=O)Nc2ccc(Cl)cc2)c1
8,146 to 147 °C,COc1ccc(C(O)(c2ccc(OC)cc2)[C@@H](N)C2CCCCC2)cc1
9,120 to 123 °C,CNC(=O)C1(CCCCCCCCO)CC2=C(C1)C(=O)C(OC)=C(OC)C2=O
10,134 °C,CC#CC1CCC(c2ccc(C3CCC(CCC)CC3)cc2)CC1 (centres undefined)
11,125 °C,CCCCCOc1cc(C(=O)O)ccc1OC
12,178 to 179 °C,Cn1c(NC(=N)N)nc2ccccc21
13,132 °C,O=S(=O)(Nc1ccc(Cl)nc1I)c1ccccc1
14,78 to 80 °C,CON(Cc1cccc(-c2ccc(Cl)cc2)c1)C(=O)c1cn(C)nc1C(F)F
15,216 to 217 °C,O=C(NC(Cc1ccccc1F)C(=O)N1CCSC1)c1cc2cc(Cl)ccc2[nH]1 (centres undefined)
16,130 °C,COc1ccc2ccc(NC(=O)c3cccc(N(C)C)c3)nc2n1
17,95 to 98 °C,Fc1cc(Cl)ccc1C1(Br)NNC2=C1CCCC2 (centres undefined)
18,104 °C,O=CC=Cc1cnc(-c2ccccc2)s1
19,148 to 150 °C,c1ccc(C2c3ccccc3-c3ncncc32)cc1 (centres undefined)
20,228 °C,Cc1c(Nc2c(C#N)cnc3sc(C4=CCN(S(C)(=O)=O)CC4)cc23)ccc2[nH]ccc12
21,86.5 to 89.5 °C,CCNC(=O)Nc1nc2nc(NCCN(CC)CC)ncc2cc1-c1c(Cl)cccc1Cl
22,62 to 64 °C,C=CCCCCCCCCCCCCCCCCCCCCO
23,88 to 90 °C,CC(C)(COc1ccc(Cl)cc1)C(=O)Cn1cncn1

row,melting point,SMILES
1,175 to 177 °C,COc1ccc(C(=O)Nc2c(Cl)cncc2Cl)cc1OC1COCC1OC (centres undefined)
2,124 to 128 °C,Cc1ccc(N=C(Nc2ccc(C)cc2)ON2C(C)(C)CC(OC(=O)c3ccccc3)CC2(C)C)cc1
3,99 to 101 °C,CON1C(C)(C)CC(OC(=O)c2cccc(C(=O)OC3CC(C)(C)N(OC)C(C)(C)C3)c2)CC1(C)C
4,160 to 163 °C,O=C(Cc1ccccc1Cl)Nc1ccc(C(=O)Oc2ccccc2)c(Cl)c1
5,181 to 192 °C,O=C(Nc1ccc(C(=O)N2CCc3cn[nH]c3-c3ncccc32)c(Cl)c1)c1ccccc1-c1ccccc1
6,220 to 221 °C,NC(=O)N1C(=O)C(C(=O)c2cccs2)c2cc(F)c(Cl)cc21 (centres undefined)
7,180 °C,N#Cc1ccc(O[C@@H]2c3ncccc3C[C@H]2N2CCC[C@@H](N)C2)c(Cl)c1
8,137 to 140 °C,CS(=O)(=O)Nc1cc2c(cc1Oc1ccccc1)C(=O)C(Br)CO2 (centres undefined)
9,117 to 120 °C,CCCc1ccc2oc(Cc3ccc(O)cc3)c(C)c2c1O
10,167 to 169 °C,NC(=O)c1sc(Oc2ccc3c(c2)OCO3)c2c1CCc1cnoc1-2
11,98 °C,CC(C)(C)c1cc(SC2CCOC2=O)cc(C(C)(C)C)c1O (centres undefined)
12,157 to 158 °C,NC1=NN(c2cccc(Cl)n2)C(c2ccc(Cl)cc2)C1 (centres undefined)
13,133 to 135 °C,CC(C)n1nc(-c2cc(C#N)cnc2-c2ccccc2)ccc1=O
14,240 to 242 °C,O=C(O)CCN1C(=O)c2ccc(C(=O)O)cc2C1=O
15,185 °C,COc1ccc(CNc2ncccc2C(=O)Nc2cccc(C(F)(F)F)c2)cn1
16,195 to 200 °C,O=C(Cn1ccnc1)c1ccccc1O
17,185 °C,CN1CCN(c2cnc(-c3cc(Cl)cc(Cl)c3Cl)c(N)n2)CC1
18,129 to 130 °C,CCCc1nn(-c2ccc(C(F)(F)F)cn2)cc1COc1ccc(CCC(=O)O)c(C)c1
19,233 to 235 °C,CCOC(=O)C(=C1SC(=S)N(CC(=O)O)C1=O)c1csc(NC(=S)NC(=O)c2ccccc2)n1
20,92 to 94 °C,CN1CN(C(=O)c2c(F)cccc2F)C(=O)N(c2ccc(SC(F)(F)F)cc2F)C1
21,136 to 138 °C,COC(=O)c1cn(-c2cc(C(=O)OC)c([N+](=O)[O-])cc2C(F)(F)F)cn1
22,213 to 217 °C,CC(=O)OC1CSC(Oc2cncc(-c3cncnc3)c2)C(OC(C)=O)C1OC(C)=O (centres undefined)
23,215 to 217 °C,COC(=O)C(O)C1OC(n2cnc3c(N)ncnc32)C(O)C1O (centres undefined)

row,melting point,SMILES
1,160 °C,N#Cc1ccc(OCCCCC(=O)O)cc1
2,195 °C,Cc1cc(C(c2ccc(C(c3ccc(O)c(C)c3)c3ccc(O)c(C)c3)cc2)c2ccc(O)c(C)c2)ccc1O
3,187 to 192 °C,C[C@@H](Nc1ncnc2cc(OCCO)c([N+](=O)[O-])cc12)c1ccccc1
4,45 °C,CC(CF)(CF)C(=O)C=Cc1ccccc1
5,123 to 126 °C,CCCc1ccc(Cc2cccc(NC(N)=O)c2)n1CCC
6,134 to 135 °C,N=C(Nc1cccc(Cl)c1)Nc1nc(-c2ccccc2)cs1
7,195 to 197 °C,O=[N+]([O-])c1cccc2c1S(=O)(=O)C=C2
8,119 to 120 °C,O=C1OC(CCl)CN1c1ccc(Cl)cc1 (centres undefined)
9,120 °C,COc1ccc2ccc(OC)c3c2c1CCC3CCNC(=O)C1CC1 (centres undefined)
10,70 to 72 °C,COC(=O)CCC(=O)c1ccc2c(c1)CC(CO)O2 (centres undefined)
11,115 to 118 °C,CS(=O)(=O)c1ccc(C(CC2CCCC2)C(=O)Nc2nc3ccccc3s2)cc1C#N (centres undefined)
12,104 to 106 °C,CCOC(=O)c1c(-c2cc(C)c(O)c(C)c2)c(C)n2c1-c1cc(N)c(OC)cc1CC2
13,128 to 130 °C,"O=C(O)c1cccc(CC2COc3ccc(OCc4ccccc4)cc3C2)c1 (single isomer, unassigned; (+))"
14,90 to 91 °C,COC(=O)O[C@@H]1[C@@H](c2ccccc2)Nc2c(ccn3c(C)c(C)nc23)[C@H]1OC
15,72 to 78 °C,O=c1c(OCC2CC2)cn(-c2cccc(C(F)(F)F)c2)nc1-c1ccnn1-c1ccccc1
16,107 °C,O=C(C(=O)c1ccc(F)c(Br)c1)c1ccc(OCCF)cc1
17,277 to 280 °C,Nc1cc2c(Nc3ccc(Cl)c(Cl)c3)ncnc2cn1
18,86 to 87 °C,O=C(CCl)CCCCc1ccc(CCCCC(=O)CCl)cc1
19,171 to 172 °C,NC(=S)NN=C(CNC(=O)c1ccccc1)c1ccccc1
20,147 to 148 °C,CC(C)(C)c1csc(-c2cc3cc(CCc4ccccc4C(=O)O)ccc3o2)n1
21,109 to 111 °C,CCOC(=O)c1[nH]c(C)c(C)c1CC(C)C
22,94 to 95 °C,CCOC(=O)c1cn(Cc2ccccc2)nc1NC(=O)NC1CCCCC1
23,157 °C,Fc1ccc(F)c(CN2CCNc3ncc(-c4ccnc(N5CCOCC5)c4)cc32)c1Cl

row,melting point,SMILES
1,79 to 81 °C,CC(C)(C)OC(=O)N1CCC[C@H](COc2cccnc2Br)C1
2,236 to 238 °C,Brc1cnc2c(c1)ncn2-c1cccc(-n2ccnc2)c1
3,154 to 158 °C,O=C1OC(N2C(=O)NC(=O)C23C(=O)N(Cc2ccc(Cl)c(Cl)c2)c2ccccc23)c2ccccc21 (centres undefined)
4,115 to 120 °C,COc1ccccc1N1CCN(C[C@@H](C)N(C(=O)c2ccccc2)C(=O)c2ccccc2)CC1
5,69 to 70 °C,O=C(OC1CCN(Cc2ccccc2)CC1)c1ccccc1Br
6,128 to 129 °C,CCOC(=O)Cn1c(=S)c2ccccc2n(Cc2ccc(Cl)c(Cl)c2)c1=O
7,198 °C,N#Cc1ccc(Cn2c(N3CCC(CNc4nccc(O)n4)CC3)nc3ccccc32)cc1
8,158 to 162 °C,COc1ccccc1[C@H](c1cccc2ccccc12)[C@@](C)(C#N)C(=O)N1CCN(c2cccc(C(F)(F)F)c2)CC1
9,187 °C,CCC1CCc2c(sc3cc(N)ccc3c2=O)C1 (centres undefined)
10,235 to 237 °C,Oc1cccc(Cc2cnc3c(-c4cc(-c5ccccc5)cs4)cnn3c2O)c1
11,210 °C,O=C1C=C2CCCCC2N1c1ccc(O)cc1 (centres undefined)
12,273 to 274 °C,Nc1cc(C(=O)O)cc(S(N)(=O)=O)c1Nc1ccc(Cl)cc1
13,138 to 139 °C,CCSC1(c2ccc(Cl)cc2)OC(c2ccncc2)=Nc2ccccc21 (centres undefined)
14,182 to 183 °C,CC(C)NC(=O)c1coc(CN2C(=O)C3(COc4cc5c(cc43)OCO5)c3ccccc32)n1 (centres undefined)
15,119 to 120 °C,Cc1oc(C=Cc2cccc(Cl)c2)nc1CC#N
16,180 to 185 °C,O=C(Nc1ccc(O)cc1)c1ccc(O)cc1
17,128 to 129 °C,COCCc1nc2c(N)nc3ccccc3c2n1CCCCC(=O)N1CCOCC1
18,62 to 63 °C,CC(CF)(CF)C1=NC(c2ccc(C(C)(C)C)cc2)CO1 (centres undefined)
19,88 to 90 °C,NCC(O)c1cc(C(N)=O)c2[nH]ccc2c1 (centres undefined)
20,119 °C,COc1ccc(C=CC(=O)N2CCOCC2)cc1C(F)F
21,269 to 271 °C,O=C1OC(=O)c2c3ccccc3c(Cl)c3cccc1c23
22,204 to 205 °C,O=C(Nc1ccc(N2CCCC2)nc1)c1cc2ccc(C(F)(F)F)nc2n1Cc1cccc(F)c1
23,67.7 to 68.3 °C,COc1ccc(-c2nn(CCCc3ccccc3)c(=O)cc2-c2ccncc2)cc1

row,SMILES,melting point
1,CCC1N=C(c2ccccc2Cl)c2cc(CC(=O)OC)sc2NC1=S (centres undefined),199 to 200 °C
2,NC(=NO)c1ncn2c1[C@@H]1CCN1C(=O)c1c-2ccc(F)c1Cl,236 to 238 °C
3,CCCCCCCCCCc1cc2c(s1)-n1c(C)nnc1CN=C2c1ccccc1C,61 to 63 °C
4,O=c1[nH]c2ccc([N+](=O)[O-])cc2c(=O)n1CCCN1CC=C(c2ccc(Cl)cc2)CC1,205 to 207 °C
5,CCOC(=O)c1ncn2c1CN=C(c1ccccc1)c1cc(C#CC(C)(C)C)ccc1-2,155 to 156 °C
6,COc1ccc(C(N)CN)cc1 (centres undefined),64 °C
7,CON=Cc1ccc2c(c1CN1CCN(C)CC1)OCO2,100 to 102 °C
